# Reference: paper PMC5218480 (PLoS ONE, 2017)
# Tested on: MV-4-11 cells
# Assay: Gene expression microarray analysis (Affymetrix PrimeView) and GSEA
# Format: cell-based, human
# Parameters: RFU PODN (11730768_x_at) / Fold change /veh PODN (11730768_x_at) / RFU LINC00158 (11744669_a_at) / Fold change /veh LINC00158 (11744669_a_at) / RFU DUSP10 (11751237_a_at) / Fold change /veh DUSP10 (11751237_a_at) / RFU ID3 (11757404_x_at) / Fold change /veh ID3 (11757404_x_at) / RFU PLEKHG5 (11737974_s_at) / Fold change /veh PLEKHG5 (11737974_s_at) / RFU LRRC4B (11730491_at) / Fold change /veh LRRC4B (11730491_at) / RFU GIMAP4 (11747438_a_at) / Fold change /veh GIMAP4 (11747438_a_at) / RFU KRT8 (11758183_x_at) / Fold change /veh KRT8 (11758183_x_at) / RFU CNN1 (11734310_a_at) / Fold change /veh CNN1 (11734310_a_at) / RFU VPS37D (11726825_at) / Fold change /veh VPS37D (11726825_at) / RFU C10orf10 (11716522_x_at) / Fold change /veh C10orf10 (11716522_x_at) / RFU KIR2DL2 /// KIR2DL4 /// KIR2DL5A /// KIR2DL5B /// KIR2DS1 /// KIR2DS2 /// KIR2DS3 /// KIR2DS4 /// KIR3DL3 /// KIR3DL3 /// KIR3DS1 (11738374_at) / Fold change /veh KIR2DL2 /// KIR2DL4 /// KIR2DL5A /// KIR2DL5B /// KIR2DS1 /// KIR2DS2 /// KIR2DS3 /// KIR2DS4 /// KIR3DL3 /// KIR3DL3 /// KIR3DS1 (11738374_at) / RFU C1QL1 (11718748_at) / Fold change /veh C1QL1 (11718748_at) / RFU TMPRSS4 (11747572_a_at) / Fold change /veh TMPRSS4 (11747572_a_at) / RFU HAMP (11756126_x_at) / Fold change /veh HAMP (11756126_x_at) / RFU RNFT2 (11725882_a_at) / Fold change /veh RNFT2 (11725882_a_at) / RFU NR4A2 (11747474_a_at) / Fold change /veh NR4A2 (11747474_a_at) / RFU ABCC12 (11746883_a_at) / Fold change /veh ABCC12 (11746883_a_at) / RFU TMEM136 (11760407_x_at) / Fold change /veh TMEM136 (11760407_x_at) / RFU CLDN22 /// WWC2 (11732394_at) / Fold change /veh CLDN22 /// WWC2 (11732394_at) / RFU HLA-DPB1 (11760878_x_at) / Fold change /veh HLA-DPB1 (11760878_x_at) / RFU SPINT1 (11716480_a_at) / Fold change /veh SPINT1 (11716480_a_at) / RFU GAP43 (11754022_s_at) / Fold change /veh GAP43 (11754022_s_at) / RFU A4GNT (11735810_at) / Fold change /veh A4GNT (11735810_at) / RFU PRB3 (11715151_x_at) / Fold change /veh PRB3 (11715151_x_at) / RFU TUBB4B (11761932_at) / Fold change /veh TUBB4B (11761932_at) / RFU CAPN14 (11732068_a_at) / Fold change /veh CAPN14 (11732068_a_at) / RFU TMCC2 (11721928_a_at) / Fold change /veh TMCC2 (11721928_a_at) / RFU IRGQ (11745062_a_at) / Fold change /veh IRGQ (11745062_a_at) / RFU FAM174B (11720279_a_at) / Fold change /veh FAM174B (11720279_a_at) / RFU TMPRSS4 (11748680_a_at) / Fold change /veh TMPRSS4 (11748680_a_at) / RFU FAM212B (11763350_a_at) / Fold change /veh FAM212B (11763350_a_at) / RFU PLEKHG5 (11743358_a_at) / Fold change /veh PLEKHG5 (11743358_a_at) / RFU ZSCAN30 (11745921_a_at) / Fold change /veh ZSCAN30 (11745921_a_at) / RFU CMKLR1 (11741424_a_at) / Fold change /veh CMKLR1 (11741424_a_at) / RFU LOC101060620 /// MAPK8IP1 (11723275_at) / Fold change /veh LOC101060620 /// MAPK8IP1 (11723275_at) / RFU SPTSSB (11747773_x_at) / Fold change /veh SPTSSB (11747773_x_at) / RFU PRSS12 (11739890_at) / Fold change /veh PRSS12 (11739890_at) / RFU BIN1 (11741810_x_at) / Fold change /veh BIN1 (11741810_x_at) / RFU WNT11 (11732464_a_at) / Fold change /veh WNT11 (11732464_a_at) / RFU C10orf10 (11716521_a_at) / Fold change /veh C10orf10 (11716521_a_at) / RFU C5orf56 (11738089_at) / Fold change /veh C5orf56 (11738089_at) / RFU CYB561 (11721691_x_at) / Fold change /veh CYB561 (11721691_x_at) / RFU ANKRD19P (11752326_a_at) / Fold change /veh ANKRD19P (11752326_a_at) / RFU OR2T12 /// OR2T33 /// OR2T8 (11738714_s_at) / Fold change /veh OR2T12 /// OR2T33 /// OR2T8 (11738714_s_at) / RFU VCAN (11748164_a_at) / Fold change /veh VCAN (11748164_a_at) / RFU JSRP1 (11732532_at) / Fold change /veh JSRP1 (11732532_at) / RFU KRTAP10-11 (11738290_x_at) / Fold change /veh KRTAP10-11 (11738290_x_at) / RFU MYO3A (11730013_a_at) / Fold change /veh MYO3A (11730013_a_at) / RFU EBF3 (11725865_a_at) / Fold change /veh EBF3 (11725865_a_at) / RFU CAMK2N1 (11719241_x_at) / Fold change /veh CAMK2N1 (11719241_x_at) / RFU C5orf56 (11738088_a_at) / Fold change /veh C5orf56 (11738088_a_at) / RFU OLFML3 (11715873_a_at) / Fold change /veh OLFML3 (11715873_a_at) / RFU LOC100653217 /// NTM (11731650_a_at) / Fold change /veh LOC100653217 /// NTM (11731650_a_at) / RFU MAPK11 (11762145_a_at) / Fold change /veh MAPK11 (11762145_a_at) / RFU FIZ1 (11724087_x_at) / Fold change /veh FIZ1 (11724087_x_at) / RFU OASL (11726364_x_at) / Fold change /veh OASL (11726364_x_at) / RFU SOX15 (11748057_x_at) / Fold change /veh SOX15 (11748057_x_at) / RFU CD79A (11719716_a_at) / Fold change /veh CD79A (11719716_a_at) / RFU HIST1H1D (11736915_at) / Fold change /veh HIST1H1D (11736915_at) / RFU CASKIN2 (11723855_a_at) / Fold change /veh CASKIN2 (11723855_a_at) / RFU LOC730098 (11760151_x_at) / Fold change /veh LOC730098 (11760151_x_at) / RFU OR4N2 (11742367_at) / Fold change /veh OR4N2 (11742367_at) / RFU PRRT2 (11749266_a_at) / Fold change /veh PRRT2 (11749266_a_at) / RFU SNX32 (11753110_a_at) / Fold change /veh SNX32 (11753110_a_at) / RFU CDHR5 (11726645_a_at) / Fold change /veh CDHR5 (11726645_a_at) / RFU RCAN1 (11760418_a_at) / Fold change /veh RCAN1 (11760418_a_at) / RFU FAM167A (11723789_a_at) / Fold change /veh FAM167A (11723789_a_at) / RFU FAM26E (11764081_at) / Fold change /veh FAM26E (11764081_at) / RFU ISYNA1 (11749810_s_at) / Fold change /veh ISYNA1 (11749810_s_at) / RFU ACY1 (11761880_at) / Fold change /veh ACY1 (11761880_at) / RFU 11764098_at / Fold change /veh 11764098_at / RFU SAMD14 (11745864_x_at) / Fold change /veh SAMD14 (11745864_x_at) / RFU NPB (11741838_a_at) / Fold change /veh NPB (11741838_a_at) / RFU TMPRSS6 (11731388_a_at) / Fold change /veh TMPRSS6 (11731388_a_at) / RFU KRTAP10-2 (11738614_at) / Fold change /veh KRTAP10-2 (11738614_at) / RFU ARHGAP8 /// PRR5-ARHGAP8 (11727945_x_at) / Fold change /veh ARHGAP8 /// PRR5-ARHGAP8 (11727945_x_at) / RFU KRTAP5-7 /// NADSYN1 (11734609_at) / Fold change /veh KRTAP5-7 /// NADSYN1 (11734609_at) / RFU RASL12 (11751679_a_at) / Fold change /veh RASL12 (11751679_a_at) / RFU CDKN2B (11736163_a_at) / Fold change /veh CDKN2B (11736163_a_at) / RFU PRF1 (11729649_at) / Fold change /veh PRF1 (11729649_at) / RFU, ZNF638 /// ZNF638-IT1 / Fold change vs veh, ZNF638 /// ZNF638-IT1 / RFU, PANK3 / Fold change vs veh, PANK3 / RFU, SH3YL1 / Fold change vs veh, SH3YL1 / RFU, ZEB2 / Fold change vs veh, ZEB2 / RFU, NRIP1 / Fold change vs veh, NRIP1 / RFU, PTTG1IP / Fold change vs veh, PTTG1IP / RFU, CAPN2 / Fold change vs veh, CAPN2 / RFU, MED14 / Fold change vs veh, MED14 / RFU, SNORA58 / Fold change vs veh, SNORA58 / RFU, C1orf63 / Fold change vs veh, C1orf63 / RFU, LRRFIP1 / Fold change vs veh, LRRFIP1 / RFU, NDUFAF7 / Fold change vs veh, NDUFAF7 / RFU, SLC12A2 / Fold change vs veh, SLC12A2 / RFU, IBTK / Fold change vs veh, IBTK / RFU, ESF1 / Fold change vs veh, ESF1 / Fold change vs veh, TMEM50B / RFU, TAOK1 / Fold change vs veh, TAOK1 / RFU, ACBD3 / Fold change vs veh, ACBD3 / RFU, TMA16 / Fold change vs veh, TMA16 / RFU, RWDD3 / Fold change vs veh, RWDD3 / RFU, BCAT1 / Fold change vs veh, BCAT1 / RFU, EDEM3 / Fold change vs veh, EDEM3 / RFU, TMEM33 / Fold change vs veh, TMEM33 / RFU, WDR75 / Fold change vs veh, WDR75 / RFU, AHCTF1 / Fold change vs veh, AHCTF1 / RFU, TFRC / Fold change vs veh, TFRC / RFU, ZDHHC17 / Fold change vs veh, ZDHHC17 / RFU, NOM1 / Fold change vs veh, NOM1 / RFU, ARL8B / Fold change vs veh, ARL8B / RFU, ZBTB11 / Fold change vs veh, ZBTB11 / RFU, TAMM41 / Fold change vs veh, TAMM41 / RFU, KIAA1704 /// LOC100996395 / Fold change vs veh, KIAA1704 /// LOC100996395 / RFU, ING1 / Fold change vs veh, ING1 / RFU, TRMT61B / Fold change vs veh, TRMT61B / RFU, FUBP3 / Fold change vs veh, FUBP3 / RFU, TP53 / Fold change vs veh, TP53 / RFU, TNKS2 / Fold change vs veh, TNKS2 / RFU, ZFP14 / Fold change vs veh, ZFP14 / RFU, ACTR2 / Fold change vs veh, ACTR2 / RFU, PPP3R1 / Fold change vs veh, PPP3R1 / RFU, PIK3R1 / Fold change vs veh, PIK3R1 / RFU, HNRNPA1 / Fold change vs veh, HNRNPA1 / RFU, RNF170 / Fold change vs veh, RNF170 / RFU, ZNF28 / Fold change vs veh, ZNF28 / RFU, RNGTT / Fold change vs veh, RNGTT / RFU, OGT / Fold change vs veh, OGT / RFU, BRD1 / Fold change vs veh, BRD1 / RFU, MARS / Fold change vs veh, MARS / RFU, ZNF655 / Fold change vs veh, ZNF655 / RFU, FAHD1 / Fold change vs veh, FAHD1 / RFU, BDP1 / Fold change vs veh, BDP1 / RFU, LRRCC1 / Fold change vs veh, LRRCC1 / RFU, ARID1A / Fold change vs veh, ARID1A / RFU, ZNF146 / Fold change vs veh, ZNF146 / RFU, ZNF330 / Fold change vs veh, ZNF330 / RFU, GPN3 / Fold change vs veh, GPN3 / RFU, C9orf123 / Fold change vs veh, C9orf123 / RFU, N4BP2L2 / Fold change vs veh, N4BP2L2 / RFU, ARFIP1 / Fold change vs veh, ARFIP1 / RFU, FAM179B / Fold change vs veh, FAM179B / RFU, BCL10 / Fold change vs veh, BCL10 / RFU, UHRF1BP1L / Fold change vs veh, UHRF1BP1L / RFU, BET1 / Fold change vs veh, BET1 / RFU, CNOT2 / Fold change vs veh, CNOT2 / RFU, ZNF268 / Fold change vs veh, ZNF268 / Fold change vs veh, ZNF507 / RFU, DGCR2 / Fold change vs veh, DGCR2 / RFU, WDSUB1 / Fold change vs veh, WDSUB1 / Fold change vs veh, HSP90B1 /// MIR3652 / RFU, ADSS / Fold change vs veh, ADSS / RFU, GK / Fold change vs veh, GK / RFU, ZNF148 / Fold change vs veh, ZNF148 / RFU, TAF9 / Fold change vs veh, TAF9 / RFU, SLC1A5 / Fold change vs veh, SLC1A5 / RFU, SLMO2 / Fold change vs veh, SLMO2 / RFU, ABCC4 / Fold change vs veh, ABCC4 / RFU, LOC101060439 /// RAP1B / Fold change vs veh, LOC101060439 /// RAP1B / RFU, RFX7 / Fold change vs veh, RFX7 / RFU, GTPBP10 / Fold change vs veh, GTPBP10 / RFU, CNEP1R1 / Fold change vs veh, CNEP1R1 / RFU, BIVM-ERCC5 /// ERCC5 / Fold change vs veh, BIVM-ERCC5 /// ERCC5 / RFU, ILF3 / Fold change vs veh, ILF3 / RFU 11762660_at / Fold change /veh 11762660_at / RFU VCAN (11757783_s_at) / Fold change /veh VCAN (11757783_s_at) / RFU DDX43 (11728927_at) / Fold change /veh DDX43 (11728927_at) / RFU KRT8 (11758188_x_at) / Fold change /veh KRT8 (11758188_x_at) / RFU NKD1 (11759106_at) / Fold change /veh NKD1 (11759106_at) / RFU SRD5A1 (11742802_a_at) / Fold change /veh SRD5A1 (11742802_a_at) / RFU TPSAB1 /// TPSB2 (11721975_s_at) / Fold change /veh TPSAB1 /// TPSB2 (11721975_s_at) / RFU GSTM3 (11746129_a_at) / Fold change /veh GSTM3 (11746129_a_at) / RFU IL23R (11737362_x_at) / Fold change /veh IL23R (11737362_x_at) / RFU TMEM51 (11727254_a_at) / Fold change /veh TMEM51 (11727254_a_at) / RFU PIWIL2 (11732686_x_at) / Fold change /veh PIWIL2 (11732686_x_at) / RFU ORM1 (11744905_x_at) / Fold change /veh ORM1 (11744905_x_at) / RFU CCDC152 (11743942_at) / Fold change /veh CCDC152 (11743942_at) / RFU ECM1 (11717891_a_at) / Fold change /veh ECM1 (11717891_a_at) / RFU IL23R (11748794_a_at) / Fold change /veh IL23R (11748794_a_at) / RFU TNFAIP8L3 (11732012_x_at) / Fold change /veh TNFAIP8L3 (11732012_x_at) / RFU MBOAT4 (11741988_at) / Fold change /veh MBOAT4 (11741988_at) / RFU 11764193_at / Fold change /veh 11764193_at / RFU TMEM53 (11763286_at) / Fold change /veh TMEM53 (11763286_at) / RFU MAGEB2 (11727129_at) / Fold change /veh MAGEB2 (11727129_at) / RFU TMEM200A (11744735_a_at) / Fold change /veh TMEM200A (11744735_a_at) / RFU CCDC152 (11751479_a_at) / Fold change /veh CCDC152 (11751479_a_at) / RFU FAM211A (11726209_a_at) / Fold change /veh FAM211A (11726209_a_at) / RFU RGS16 (11746705_a_at) / Fold change /veh RGS16 (11746705_a_at) / RFU VCAN (11755009_s_at) / Fold change /veh VCAN (11755009_s_at) / RFU RHOB (11743442_s_at) / Fold change /veh RHOB (11743442_s_at) / RFU RGS16 (11720943_a_at) / Fold change /veh RGS16 (11720943_a_at) / RFU RGS16 (11720944_at) / Fold change /veh RGS16 (11720944_at) / RFU, VPS4B / Fold change vs veh, VPS4B / RFU, CREB1 / Fold change vs veh, CREB1 / RFU, DNAJC13 / Fold change vs veh, DNAJC13 / RFU, GNAQ / Fold change vs veh, GNAQ / RFU, CDK5R1 / Fold change vs veh, CDK5R1 / RFU, ZRANB3 / Fold change vs veh, ZRANB3 / RFU, CUL4A / Fold change vs veh, CUL4A / RFU, CCNY / Fold change vs veh, CCNY / RFU, UFL1 / Fold change vs veh, UFL1 / RFU, COG3 / Fold change vs veh, COG3 / RFU, DIAPH2 / Fold change vs veh, DIAPH2 / RFU, SKA2 / Fold change vs veh, SKA2 / RFU, AFF3 / Fold change vs veh, AFF3 / RFU, LMF1 / Fold change vs veh, LMF1 / RFU, IPO11 / Fold change vs veh, IPO11 / RFU, DFFB / Fold change vs veh, DFFB / RFU, FOXP1 / Fold change vs veh, FOXP1 / RFU, CARD8 / Fold change vs veh, CARD8 / RFU, STRN3 / Fold change vs veh, STRN3 / RFU, ADK / Fold change vs veh, ADK / RFU, RASSF2 / Fold change vs veh, RASSF2 / RFU, WIPF1 / Fold change vs veh, WIPF1 / RFU, LARP1B / Fold change vs veh, LARP1B / RFU, RASA1 / Fold change vs veh, RASA1 / RFU, RB1 / Fold change vs veh, RB1 / RFU, PPFIA1 / Fold change vs veh, PPFIA1 / RFU, MAT2A / Fold change vs veh, MAT2A / RFU, CCT5 / Fold change vs veh, CCT5 / RFU, WDR92 / Fold change vs veh, WDR92 / RFU, CUX1 / Fold change vs veh, CUX1 / RFU, TTC7A / Fold change vs veh, TTC7A / RFU, TMEM135 / Fold change vs veh, TMEM135 / RFU, DEPTOR / Fold change vs veh, DEPTOR / RFU, CPM / Fold change vs veh, CPM / RFU, DNAJB6 / Fold change vs veh, DNAJB6 / RFU, CACNA2D3 / Fold change vs veh, CACNA2D3 / RFU, DTX4 / Fold change vs veh, DTX4 / RFU, TFCP2 / Fold change vs veh, TFCP2 / RFU, GMCL1 /// GMCL1P1 / Fold change vs veh, GMCL1 /// GMCL1P1 / RFU, AEBP2 / Fold change vs veh, AEBP2 / RFU, SNHG1 /// SNORD22 /// SNORD25 /// SNORD26 /// SNORD27 /// SNORD28 /// SNORD29 /// SNORD31 / Fold change vs veh, SNHG1 /// SNORD22 /// SNORD25 /// SNORD26 /// SNORD27 /// SNORD28 /// SNORD29 /// SNORD31 / Fold change (Aza/veh), C12orf56 (ProbeSet 11735607_a_at) / Fold change (ACY-1035/veh), C12orf56 (ProbeSet 11735607_a_at) / Fold change (Aza/veh), FGFR1OP (ProbeSet 11751329_s_at) / Fold change (ACY-1035/veh), FGFR1OP (ProbeSet 11751329_s_at) / Fold change (Aza/veh), VPS36 (ProbeSet 11739960_a_at) / Fold change (ACY-1035/veh), VPS36 (ProbeSet 11739960_a_at) / RFU SYPL1 (11715823_x_at) / Fold change /veh SYPL1 (11715823_x_at) / RFU IGFBP7 (11715501_s_at) / Fold change /veh IGFBP7 (11715501_s_at) / RFU REEP3 (11722064_at) / Fold change /veh REEP3 (11722064_at) / RFU IGLL1 (11728026_x_at) / Fold change /veh IGLL1 (11728026_x_at): dose or concentration left out as unconfirmed
# Settings: ProbeSet 11734782_x_at; LIST D
structure (smiles),measurement,value
Nc1ccc(-c2cccs2)cc1NC(=O)c1ccc2c(c1)cc(C1CC1)n2CCN1CCOCC1 [ACY-1035],"Fold change vs veh, WDR92",0.89
